Where two headings read alike, the source gives them in different places.
Key:
Type in all cases: cell-based
[1] = tested on: HL-60(TB); experiment: NCI 60 antitumor screening (single dose / five doses); settings: Homo sapiens
[2] = tested on: K-562; experiment: as above; settings: Homo sapiens
[3] = tested on: SF-295; experiment: as above; settings: Homo sapiens
[4] = tested on: LOX IMVI; experiment: as above; settings: Homo sapiens, read-out: Growth inhibition percentage (GI %)
[5] = tested on: SK-MEL-2; experiment: as above; settings: Homo sapiens
[6] = tested on: 60 human subpanel cancer cell lines; experiment: NCI 60 antitumor screening, mean over the panel (single dose); settings: mean over 60 cancer cell lines, single dose 10 μM
Method: Initially, the anticancer effects of target compounds have been assessed at a single (10 μM) dose. The obtained data have been reported as mean-graph of the percent growth (G%) of the treated cancer cells. Percentage growth inhibition (GI%) is calculated (100 − G%) and pronounced in Table 1. […] Target compounds in series (III) with manipulated linkers disclosed lower potency. Superiorly, eight s-triazine derivatives from the three series (6a, 6c, 6d, 7a, 7g, 7i, 7l, and 8b) have shown potent broad-spectrum anticancer activity against most the examined cell lines, whereas most of the remaining triazine derivatives, 20 derivatives, have exerted selective anti-proliferative actions towards certain cancer cell lines (Supplementary).
The antitumor screening was performed for 60 human cancer cell lines under the protocol of NCI (www.dtp.nci.nih.gov), the Drug Evaluation Branch, Bethesda, MD. All submitted compounds were nominated based on the degree of structural diversity and computer modelling techniques for evaluation of their anticancer activity. The screening process for antineoplastic activity passes through two successive levels, starting with the assessment of target compounds at a single dose of 10 μM against 60 cancer cell lines on nine types of human tumours. These experiments were done on a triplicate following. The output from the single‐dose screening was covered as a mean graph, and then, analysed by the COMPARE program. Finally, the compounds which disclosed subpanel cancer cell growth (G %) equal to or less than 10% in at least eight cancer cell lines get to pass the assessment against the 60 cell lines at five doses (0.01–100 μM). By using GraphPad Prism version 9.0 (Graphpad Software Inc., La Jolla, CA), GI50, TGI, as well as LC50 dose‐response parameters were computed and presented for each compound (Supplementary information)[55–57].

[7] = HL-60(TB) (leukaemia), single dose 10 μM, read-out: Growth inhibition percentage (GI %)
[8] = K562, K-562 (leukaemia), single dose 10 μM, read-out: Growth inhibition percentage (GI %)
[9] = SF-295 (CNS cancer), single dose 10 μM, read-out: Growth inhibition percentage (GI %)
[10] = LOX IMVI (melanoma), single dose 10 μM
[11] = SK-MEL-2 (melanoma), single dose 10 μM, read-out: Growth inhibition percentage (GI %)
[12] = HL-60, read-out: Growth inhibition percentage (GI %)
[13] = K562, read-out: Growth inhibition percentage (GI %)
[14] = SF-295, read-out: Growth inhibition percentage (GI %)
[15] = SK-MEL-2, read-out: Growth inhibition percentage (GI %)

Compound | inhibition at 10 µM [1, 7] [%] | inhibition at 10 µM [2, 8] [%] | inhibition at 10 µM [3, 9] [%] | inhibition at 10 µM [4, 10] [%] | inhibition at 10 µM [5, 11] [%] | Mean GI % [6] [%] | inhibition at 10 µM [1, 12] [%] | inhibition at 10 µM [2, 13] [%] | inhibition at 10 µM [3, 14] [%] | inhibition at 10 µM ([4]; LOX IMVI) [%] | inhibition at 10 µM [5, 15] [%]
Brc1ccccc1/C=N/Nc1nc(N/N=C/c2ccccc2Br)nc(N2CCOCC2)n1 [compound 6b, 2,4-Bis[(E)-2-[(2-bromophenyl)methylidene]hydrazin-1-yl]-6-(morpholin-4-yl)-1,3,5-triazine] | 19.5 | 5.94 | 14.5 | -2.7 | 3.71 | 7.16 | – | – | – | – | –
O=[N+]([O-])c1cccc(/C=N/Nc2nc(N/N=C/c3cccc([N+](=O)[O-])c3)nc(N3CCOCC3)n2)c1 [compound 6f, 2-(Morpholin-4-yl)-4,6-bis[(E)-2-[(3-nitrophenyl)methylidene]hydrazin-1-yl]-1,3,5-triazine] | – | – | – | – | – | 23.39 | 47.8 | 63.3 | 13.7 | 39.5 | 4.93
Clc1cccc(/C=N/Nc2nc(N/N=C/c3cccc(Cl)c3Cl)nc(N3CCOCC3)n2)c1Cl [compound 6h, 2,4-Bis[(E)-2-[(2,3-Dichlorophenyl)methylidene]hydrazin-1-yl]-6-(morpholin-4-yl)-1,3,5-triazine] | -3.95 | 38.6 | 18 | 31.6 | 13.8 | 9.97 | – | – | – | – | –
O=[N+]([O-])c1cc(/C=N/Nc2nc(N/N=C/c3ccc(Cl)c([N+](=O)[O-])c3)nc(N3CCOCC3)n2)ccc1Cl [compound 6i, 2,4-Bis[(E)-2-[(4-Chloro-3-nitrophenyl)methylidene]hydrazin-1-yl]-6-(morpholin-4-yl)-1,3,5-triazine] | – | – | – | – | – | 0.67 | 13.7 | 31.4 | -7.07 | 9.76 | -2.6
Oc1ccc(/C=N/Nc2nc(N/N=C/c3ccc(O)c(O)c3)nc(N3CCOCC3)n2)cc1O [compound 6j, 4-[(1e)-(2-{4-[(E)-2-[(3,4-Dihydroxyphenyl)methylidene]hydrazin-1-yl]-6-(morpholin-4-yl)-1,3,5-triazin-2-yl}hydrazin-1-ylidene)methyl]benzene-1,2-diol] | 0.38 | -5.6 | -3.97 | -5.85 | 3.04 | -2.12 | – | – | – | – | –
C(=N\Nc1nc(N/N=C/c2ccc3c(c2)OCO3)nc(N2CCOCC2)n1)/c1ccc2c(c1)OCO2 [compound 6k, 2,4-Bis[(E)-2-(2H-1,3-Benzodioxol-5-ylmethylidene)hydrazin-1-yl]-6-(morpholin-4-yl)-1,3,5-triazine] | 61.1 | 45.6 | 9.09 | 30.1 | 1.68 | 20.69 | – | – | – | – | –
Brc1ccccc1/C=N/Nc1nc(N/N=C/c2ccccc2Br)nc(N2CCCCC2)n1 [compound 7b, 2,4-Bis[(E)-2-[(2-Bromophenyl)methylidene]hydrazin-1-yl]-6-(piperidin-1-yl)-1,3,5-triazine] | -3.87 | 4.67 | -3.22 | 1.94 | -1.28 | −0.12 | – | – | – | – | –
O=[N+]([O-])c1cccc(/C=N/Nc2nc(N/N=C/c3cccc([N+](=O)[O-])c3)nc(N3CCCCC3)n2)c1 [compound 7f, 2,4-Bis[(E)-2-[(3-Nitrophenyl)methylidene]hydrazin-1-yl]-6-(piperidin-1-yl)-1,3,5-triazine] | – | – | – | – | – | 30.94 | 42.8 | 67.6 | 28.3 | 49.1 | 36
Clc1cccc(/C=N/Nc2nc(N/N=C/c3cccc(Cl)c3Cl)nc(N3CCCCC3)n2)c1Cl [compound 7h, 2,4-Bis[(E)-2-[(2,3-Dichlorophenyl)methylidene]hydrazin-1-yl]-6-(piperidin-1-yl)-1,3,5-triazine] | -6.32 | 21.9 | 7.34 | 31.7 | 2.27 | 18.81 | – | – | – | – | –
O=[N+]([O-])c1cc(/C=N/Nc2nc(N/N=C/c3ccc(Cl)c([N+](=O)[O-])c3)nc(N3CCCCC3)n2)ccc1Cl [compound 7i, 2,4-Bis[(E)-2-[(4-Chloro-3-nitrophenyl)methylidene]hydrazin-1-yl]-6-(piperidin-1-yl)-1,3,5-triazine] | – | – | – | – | – | 37.38 | 58.1 | 68.3 | 6.78 | 34 | 37.8
Oc1ccc(/C=N/Nc2nc(N/N=C/c3ccc(O)c(O)c3)nc(N3CCCCC3)n2)cc1O [compound 7j, 4-[(1e)-(2-{4-[(E)-2-[(3,4-Dihydroxyphenyl)methylidene]hydrazin-1-yl]-6-(piperidin-1-yl)-1,3,5-triazin-2-yl}hydrazin-1-ylidene)methyl]benzene-1,2-diol] | -1.96 | 6.41 | 0.36 | 6.65 | 9.62 | 1.89 | – | – | – | – | –
C(=N\Nc1nc(N/N=C/c2ccc3c(c2)OCO3)nc(N2CCCCC2)n1)/c1ccc2c(c1)OCO2 [compound 7k, 2,4-Bis[(E)-2-(2H-1,3-Benzodioxol-5-ylmethylidene)hydrazin-1-yl]-6-(piperidin-1-yl)-1,3,5-triazine] | 39.6 | 58.9 | 22.2 | 52.1 | -2.84 | 14.53 | – | – | – | – | –
C/C(=N\Nc1nc(N/N=C(\C)c2ccc([N+](=O)[O-])cc2)nc(N2CCOCC2)n1)c1ccc([N+](=O)[O-])cc1 [compound 8a, 2-(Morpholin-4-yl)-4,6-bis[(E)-2-[1–(4-nitrophenyl)ethylidene]hydrazin-1-yl]-1,3,5-triazine] | – | – | – | – | – | 23.27 | 7.4 | 20.3 | 33.5 | 61.1 | 3.61
COC(=O)C(Cc1ccccc1)Nc1nc(NC(Cc2ccccc2)C(=O)OC)nc(N2CCOCC2)n1 (stereo not shown) [compound 8c, Methyl 2-({4-[(1-methoxy-1-oxo-3-phenylpropan-2-yl)amino]-6-(morpholin-4-yl)-1,3,5-triazin-2-yl}amino)-3-phenylpropanoate] | -2.51 | 8.42 | -7.74 | -5.03 | -11 | – | – | – | – | – | –
O=C(NNc1nc(NNC(=O)c2ccccc2)nc(N2CCOCC2)n1)c1ccccc1 [compound 8d, N'-[4-(morpholin-4-yl)-6-(phenylhydrazido)-1,3,5-triazin-2-yl]benzohydrazide] | -15.3 | -6.16 | -0.06 | 2.21 | -13.4 | – | – | – | – | – | –

— paper PMC9848300, “Discovery of novel enasidenib analogues targeting inhibition of mutant isocitrate dehydrogenase 2 as antileukaemic agents” (Journal of Enzyme Inhibition and Medicinal Chemistry, 2023)
